Turning to `COC1CC(OC2CCC3(C)C(CCC4C3CCC3(C)C(C5=CC(=O)OC5)C(O)CC43O)C2)OC(C)C1O` (stereo unspecified), the logP came out at 0.59.

For `CNC(=S)NCCSCc1cncn1C`, the logP worked out at 0.32.

`CCNC(C)Cc1cccc(C(F)(F)F)c1` (stereo unspecified) had a logP of 3.36.

`Nc1nnc(CCc2ccccc2)o1` returned a logP of 1.19.

For `O=C(O)c1ccc(Cl)cc1Nc1ccccc1`, the logP was 4.25.

As for `CCC1OC(=O)C(C)C(OC2CC(C)(OC)C(OC=O)C(C)O2)C(C)C(OC2OC(C)CC(N(C)C)C2O)C(C)(O)CC(C)C(=O)C(C)C(O)C1C` (stereo unspecified), the logP amounted to 3.05.

`CCCCCCCCc1ccccc1` returned a logP of 6.3.

Turning to `O=C(c1cccc(C(F)(F)F)c1)c1ccc2n1CCC2C(=O)O` (stereo unspecified), the logP worked out at 3.69.

In the case of `N=C(N)NN=Cc1ccccc1`, the logP is 1.18.

The compound `OC(CCN1CCCCC1)(c1ccccc1)C1CCCCC1` (stereo unspecified) showed a logP of 4.49.

The compound `CC(=O)Nc1c(I)c(C(=O)N(C)CC(O)CO)c(I)c(C(=O)N(C)CC(O)CO)c1I` (stereo unspecified) registered a log partition coefficient (logP) of -2.71.

As to `COC(=O)Nc1ccc(Cl)c(Cl)c1`, the logP came to 3.32.

In the case of `CC(=O)C(C(=O)ON=C(C)C12CC3CC(CC(C3)C1)C2)c1ccccc1` (stereo unspecified), the logP worked out at 4.64.

`CCC1OC(=O)C(C)C(OC2CC(C)(OC)C(O)C(C)O2)C(C)C(OC2OC(C)CC(N(C)C)C2O)C(C)(O)CC(C)C(=O)C(C)C(OC(C)=O)C1(C)O` (stereo unspecified) registered a logP of 2.85.

`CCCCn1c(=O)n(C)c(=O)c2[nH]cnc21` came in with a logP of 1.29.

In turn, `Nc1nc2c(ncn2C2OC(CO)C(O)C2O)c(=O)[nH]1` (stereo unspecified) gave a logP of -1.9.

For `CC1CCC2C(C)C(OC(=O)Oc3ccccc3)OC3OC4(C)CCC1C32OO4` (stereo unspecified), the logP came out at 4.41.

As to `CCCCC(CCC)C(=O)O` (stereo unspecified), the logP was 3.01.

For `Cc1cc(N=O)ccc1O`, the logP is 1.71.

Regarding `CCCCCc1cc(OC)c2c(c1)OC(C)(C)C1CC=C(C)CC21` (stereo unspecified), the logP turned out to be 8.06.

As for `O=C(O)c1cc2ccccc2cc1O`, the logP turned out to be 3.05.

The compound `Cn1c([N+](=O)[O-])cnc1/C=C/c1ccnc(N)n1` displayed a log partition coefficient (logP) of 0.85.

`CCOC(=O)C(CC(C)C)NC(=O)CNC(=O)CNC(=O)CCCCSc1ncnc2nc[nH]c12` (stereo unspecified) showed a logP of 1.07.

As for `CCCCCCCCCCCCCCCC(=O)O`, the logP was determined as 7.17.

In turn, `CCCCc1cc(OC)c(CC(C)N)cc1OC` (stereo unspecified) yielded a logP of 4.

The compound `CC(=O)OC(C(=O)ON=C(C)C12CC3CC(CC(C3)C1)C2)c1ccccc1` (stereo unspecified) yielded a log partition coefficient (logP) of 5.89.

Compound `OC(Cn1ccnc1)(c1ccc(Cl)cc1)c1ccc(-c2ccncc2)cc1` (stereo unspecified) registered a logP of 3.27.

Take `CCCN(C(C)=O)C(C)C`: the logP is 1.48.

As for `COCCNC(=O)COc1ccc(OCCNCC(O)COc2ccccc2)cc1` (stereo unspecified), the logP is 1.7.

Compound `COC(=O)c1nc(NCC(O)CO)cnc1[N+](=O)[O-]` (stereo unspecified) returned a logP of -0.1.

Consider `O=C1CC(c2ccccc2)c2ccccc2N1` (stereo unspecified), for which the logP worked out at 2.79.

Consider `C=C(C)C(=O)OCC(O)COc1ccccc1` (stereo unspecified), for which the logP was found to be 2.27.

`CCC(=O)OCOC(=O)c1cc(S(N)(=O)=O)c(Cl)cc1NCc1ccco1` yielded a logP of 2.9.

With `Cc1cccc(C)c1NC(=O)C(C)N` (stereo unspecified), the logP was 0.76.

In turn, `COc1cccc2c1C(=O)c1c(O)c3c(c(O)c1C2=O)CC(O)(C(C)=O)CC3OC1CC(N2CCOCC2C#N)C(O)C(C)O1` (stereo unspecified) returned a logP of 2.59.

For `CC1(C)CCC(c2ccccc2)(N2CCCCC2)CC1`, the logP worked out at 6.39.

As to `C=C1C(=O)OC2C=C(C)C(OC(C)=O)CC(O)C(C)=CC(OC(=O)C(C)=CC)C12` (stereo unspecified), the logP was 1.16.

Compound `CCCCc1ccc(O)cc1` came in with a logP of 3.65.

As for `CC1(C)CC(=O)CC(C)(C)N1O`, the logP is 0.12.

As for `CC1CCCC(c2ccccc2)(N2CCCCC2)C1` (stereo unspecified), the logP was 5.86.

For the compound `Fc1cccc(N=C2NCCN2)c1Cl`, the logP amounted to 1.52.

In the case of `CCNc1nc(Cl)nc(NC2CC2)n1`, the logP stood at 2.17.

`COC(=O)C1C(C=C2CCSC2=O)C1(C)C` (stereo unspecified) gave a logP of 2.33.

As for `COC(=O)CCC(C)=O`, the logP is -0.13.

As to `O=C(O)CCn1ccc2ccccc21`, the logP came to 2.2.

The compound `CCCCCC=CCC=CCCCCCCCC(=O)O` displayed a logP of 7.05.

With `CCOC(=O)Cn1nc2ccccc2n1`, the logP amounted to 1.85.

`CCN1CC(C(O)C(CC2CCCCC2)NC(=O)C(Cc2cscn2)NC(=O)C(CC(=O)N2CCOCC2)c2ccccc2)OC1=O` (stereo unspecified) had a logP of 2.83.

`CC(C)OC(=O)[C@@H](N)Cc1ccc(O)c(O)c1` yielded a logP of 0.57.

Regarding `CC[C@@H]1C(=O)OC[C@@H]1Cc1cncn1C`, the log partition coefficient (logP) was determined as 0.12.

`Nc1ccc(S(=O)(=O)Nc2ccc([N+](=O)[O-])cc2)cc1` yielded a logP of 2.14.

`N#Cc1ccc(C[Se]CCC(=O)O)cc1` displayed a logP of 1.37.

In turn, `O=[N+]([O-])c1ccc(Cc2ccncc2)cc1` showed a logP of 2.88.

The compound `COc1cccc(NC(=O)CN2CCCCC2)c1` registered a lipophilicity (logP) of 2.71.

`O=C(NCCNCC(O)COc1ccc(-c2ncc[nH]2)cc1)Nc1ccccc1` (stereo unspecified) registered a logP of 1.19.

The compound `CCCOc1cc(Br)c(Cc2cnc(N)nc2N)cc1OC` yielded a logP of 2.84.

The compound `O=[N+]([O-])c1nccn1CCN1CCOCC1` came in with a logP of -0.1.

`CCC1OC(=O)C(C)C(OC2CC(C)(OC)C(OC=O)C(C)O2)C(C)C(OC2OC(C)CC(N(C)C)C2O)C(C)(O)CC(C)C(=O)C(C)C(O)C1(C)O` (stereo unspecified) came in with a logP of 2.64.

For the compound `O=c1ccc2ccc3occc3c2o1`, the logP came to 2.08.

In the case of `Cc1cccc(C(=O)c2ccc3n2CCC3C(=O)O)c1` (stereo unspecified), the logP is 3.23.

Take `CC(=O)c1cccc(Nc2ccccc2C(=O)O)c1`: the logP worked out at 4.07.

In turn, `O=C1CCc2ccccc2N1` had a logP of 1.34.

Compound `Nc1ccn([C@H]2C=C[C@@H](CO)O2)c(=O)n1` registered a logP of -1.55.

`O=C(Cn1ccnc1[N+](=O)[O-])NC(CO)(CO)CO` registered a logP of -1.77.

The compound `C=C(C)C(=O)OCC(CC)CCCC` (stereo unspecified) came in with a logP of 4.54.

On to `O=NN1CC=CCC1`, for which the logP turned out to be 1.18.

`CN(Cc1ccc(Cl)cc1)N=Nc1ccc(C(=O)O)cc1` had a logP of 4.85.

Consider `CN1CCC(=C2c3ccccc3C=Cc3ccccc32)CC1`, for which the logP worked out at 4.69.

As to `COc1ccc(CCNCC(O)COc2ccc(COCc3ncc[nH]3)cc2)cc1OC` (stereo unspecified), the logP was 1.29.

On to `CC(C)C(Nc1ccccc1)C(=O)OCc1ccccc1` (stereo unspecified), for which the logP was found to be 4.41.

For `CCCn1c(=O)n(C)c(=O)c2nc[nH]c21`, the logP is 1.02.

For `O=C(O)c1ccc(Cl)cc1Nc1cccc(Cl)c1`, the logP was determined as 5.

In turn, `CCc1ccc2cc3ccccc3cc2c1` returned a logP of 5.85.

In turn, `Cc1cc2occc2c2oc(=O)ccc12` gave a logP of 2.41.

`CNC(Cc1ccccc1)Cc1ccccc1`: the log partition coefficient (logP) came out at 3.8.

The compound `CN(C)c1ccc(C(O)(Cn2ccnc2)c2ccc(-c3ccncc3)cc2)cc1` (stereo unspecified) showed a logP of 3.29.

On to `O=C(c1ccc(C(F)(F)F)cc1)c1ccc2n1CCC2C(=O)O` (stereo unspecified), for which the logP was 3.71.

`Nc1ncnc2c1ncn2C1C=CC(CO)O1` (stereo unspecified) gave a logP of -0.5.

The compound `ClC(Cl)=C(c1ccc(Cl)cc1)c1ccc(Cl)cc1` had a logP of 6.51.

Compound `Brc1cc2ccccc2nn1` registered a logP of 1.72.

With `NC1CCc2ccccc2C1` (stereo unspecified), the logP came out at 2.08.

`CC(=O)c1ccc(C(O)(Cn2ccnc2)c2ccc(-c3ccncc3)cc2)cc1` (stereo unspecified): the logP is 2.41.

On to `CC1OC(OC2C(O)CC(OC3C(O)CC(OC4CCC5(C)C(CCC6C5CC(O)C5(C)C(C7COC(=O)C7)CCC65O)C4)OC3C)OC2C)CC(O)C1O` (stereo unspecified), for which the logP was found to be 1.36.

For the compound `CCN(CC)C(C)CCCC(=O)Nc1c(C)cccc1C` (stereo unspecified), the logP was 2.64.

For `CNC(=O)NS(=O)(=O)c1ccc(C)cc1`, the logP was found to be 0.95.

In the case of `COc1ccc(CCNCC(O)COc2ccc(-c3ncc(Cl)[nH]3)cc2)cc1OC` (stereo unspecified), the logP amounted to 2.4.

In the case of `Clc1cccc(-c2cccc(Cl)c2)c1`, the lipophilicity (logP) was found to be 5.27.

`CC(=O)c1ccccc1Br` showed a logP of 2.28.

`CC1CC2C3CC(F)C4=CC(=O)C(Cl)=CC4(C)C3(Cl)C(O)CC2(C)C1(O)C(=O)COC(=O)C(C)(C)C` (stereo unspecified) came in with a logP of 4.73.

With `Cc1ccc(Br)cc1N=C1NCCN1`, the logP worked out at 1.94.

`CCCCCCCCC(C)(C)c1ccc(C2CCCC(O)C2)c(O)c1` (stereo unspecified) had a logP of 8.16.

With `O=C(NN1CC=CCC1)c1cccs1`, the logP came out at 1.88.

`CC(=O)OCC1=C(C(=O)OCOC(=O)C(C)(C)C)N2C(=O)C(NC(=O)Cc3cccs3)C2SC1` (stereo unspecified) showed a logP of 1.57.

Consider `CNCCc1ccccc1`, for which the logP is 1.91.

In turn, `OC(CCN1CCCCC1)(c1ccccc1)C1CC2C=CC1C2` (stereo unspecified) yielded a logP of 4.25.

As for `CC(C)CCOC(=O)c1ccccc1`, the logP amounted to 4.15.

With `OC(CN1CCCC1)(c1ccc(F)cc1)c1ccc(-c2ccncc2)cc1` (stereo unspecified), the logP is 3.84.

As to `COc1ccc(CCNCC(O)COc2ccc(-c3ncc(C)[nH]3)cc2OC)cc1OC` (stereo unspecified), the logP came to 1.89.

As to `O=C1Nc2ccccc2C1c1ccccc1` (stereo unspecified), the logP was 2.59.

Compound `C#CC1(O)C(F)CC2C3CCc4cc(O)ccc4C3C(CC)CC21C` (stereo unspecified) came in with a logP of 4.12.

Turning to `CCOC(=O)OCCC(SC(=O)OCC)=C(C)N(C=O)CC1=C(C(=O)OCOC(=O)C(C)(C)C)N2C(=O)C(NC(=O)C(=NOC)c3csc(N)n3)C2SC1` (stereo unspecified), the logP amounted to 3.34.

On to `CCC1OC(=O)C(C)C(OC2CC(C)(OC)C(OC(C)=O)C(C)O2)C(C)C(OC2OC(C)CC(N(C)C)C2O)C(C)(O)CC(C)C(=O)C(C)C(O)C1C` (stereo unspecified), for which the logP turned out to be 3.23.

The compound `O=C(Cc1ccccc1)c1ccc2n1CCC2C(=O)O` (stereo unspecified) gave a logP of 2.52.

Turning to `CCCCCC(=O)OCC(Cc1cncn1C)C(CC)C(=O)OCc1ccccc1` (stereo unspecified), the logP was determined as 4.75.

In the case of `CC(C)(C)c1ccc(CC(=O)O)cc1`, the logP came to 2.98.

`CC1(C)C(C=C2CCSC2=O)C1C(=O)OCc1ccccc1` (stereo unspecified) displayed a logP of 4.02.

Turning to `O=Nc1ccc(O)c(=O)cc1`, the logP turned out to be 0.83.

`Cc1ccc(N2Cn3c(nc4ccccc4c3=O)C2C)cc1` (stereo unspecified) yielded a logP of 2.16.

The compound `Cc1cccc(C)c1N(CCCN1CCCCC1)C(=O)Cc1ccccc1` displayed a logP of 5.28.

With `OC(Cn1ccnc1)(c1ccc(F)cc1)c1ccc(-c2ccccc2)cc1` (stereo unspecified), the logP was 4.23.

In turn, `CCOC(=O)C=COc1ccccc1` yielded a logP of 3.18.
